Patent publication US12643906B2, “Fused aza-heterocyclic amide compound and use thereof” (CSPC ZHONGQI PHARMACEUTICAL TECHNOLOGY (SHIJIAZHUANG) CO., …, priority 2020, dated 2026)

How the values were obtained:
Ba/F3 LMNA-NTRK1-G595R = biological target: T1, Ba/F3 LMNA-NTRK1-G595R (Homo sapiens, UniProt P04629, G595R, cells depend on it); experiment: In vitro cell proliferation inhibition (MTT); type: cell-based, murine; conditions: 72 h, read-out: IC50 Ba/F3 LMNA-NTRK1-G595R
T1 construct: fused on or other part: P02545 (Prelamin-A/C)
Method: (§1) Cells in the logarithmic growth phase were harvested and counted using a […]. The cell suspension with a certain density was pipetted uniformly and seeded into a 96-well plate with each well of 100 μL, and shaken to make the cells uniformly disperse into the wells. 100 μL of compound solution with certain concentration gradient was added into each well, and 3 duplicate wells were set for each concentration. The plate was cultured in a CO2 incubator at 37° C. for 72 h. 20 μL of MTT working solution (5 mg/mL) was added into each well, and the plate was placed at 37° C. for 4 h, and centrifuged at 1000 rpm for 5 min by a plate centrifuge. After 180 μL of culture medium was discarded, the plate was added with 150 μL of DMSO, and mixed well with a microplate shaker, the plate bottom was wiped, and optical density (OD) at 550 nm was detected with a microplate reader.

Ba/F3 LMNA-NTRK1-G667C = biological target: T2, Ba/F3 LMNA-NTRK1-G667C (Homo sapiens, UniProt P04629, G667C, cells depend on it); experiment: In vitro cell proliferation inhibition (MTT); type: cell-based, murine; conditions: 72 h, read-out: IC50 Ba/F3 LMNA-NTRK1-G667C
T2 construct: fused on or other part: P02545 (Prelamin-A/C)
Method: as §1

Ba/F3 ETV6-NTRK2 = biological target: T3, Ba/F3 ETV6-NTRK2 (Homo sapiens, UniProt Q16620); experiment: In vitro cell proliferation inhibition (MTT); type: cell-based, murine; conditions: 72 h, read-out: IC50 Ba/F3 ETV6-NTRK2
T3 construct: fused on or other part: P41212 (Transcription factor ETV6)
Method: as §1

Ba/F3 ETV6-NTRK3-G623R = biological target: T4, Ba/F3 ETV6-NTRK3-G623R (Homo sapiens, UniProt Q16288, G623R, cells depend on it); experiment: In vitro cell proliferation inhibition (MTT); type: cell-based, murine; conditions: 72 h, read-out: IC50 Ba/F3 ETV6-NTRK3-G623R
T4 construct: fused on or other part: P41212 (Transcription factor ETV6)
Method: as §1

Ba/F3 LMNA-NTRK1 = biological target: T5, Ba/F3 LMNA-NTRK1 (Homo sapiens, UniProt P04629); experiment: In vitro cell proliferation inhibition (MTT); type: cell-based, murine; conditions: 72 h, read-out: IC50 Ba/F3 LMNA-NTRK1
T5 construct: fused on or other part: P02545 (Prelamin-A/C)
Method: as §1

Ba/F3 ETV6-NTRK3-G696A = biological target: T6, Ba/F3 ETV6-NTRK3-G696A (Homo sapiens, UniProt Q16288, G696A, cells depend on it); experiment: In vitro cell proliferation inhibition (MTT); type: cell-based, murine; conditions: 72 h, read-out: IC50 Ba/F3 ETV6-NTRK3-G696A
T6 construct: fused on or other part: P41212 (Transcription factor ETV6)
Method: • Source of 6 kinds of cell lines for the test: KYinno Biotechnology (Beijing) Co., Ltd. • Cell type: murine B cells • Culture medium: RPMI-1640+10% FB S 2. Test Method
as §1

TRKB = biological target: T7, TRKB (Homo sapiens, UniProt Q16620); experiment: HTRF kinase inhibition assay, TRKB; type: biochemical
T7 construct: purchased Bioduro
Method: (§2) The compound to be tested with a certain concentration gradient and an enzyme solution were successively added into a plate (kinase buffer (1× kinase buffer (Cisbio, Cat #62EZBFDD), pH 7.5; 5 mM MgCl2, 1 mM DTT) was added into negative control wells), and the compound plate was centrifuged at 1000 rpm for 30 seconds. The plate was sealed and incubated in a Constant Temperature Incubator at 25° C. for 30 min. A substrate solution containing TK-Sub-biotin (Cisbio, Cat #61TKOBL) and ATP (Sigma, Cat #R0441) was prepared, the substrate solution was added into a 384-well plate, and the plate was centrifuged at 1000 rpm for 30 seconds. The plate was sealed and incubated in a Constant Temperature Incubator at 25° C. for 60 min.
(§3) TK antibody and XL665 were diluted, mixed and added into the assay plate, and the plate was centrifuged at 1000 rpm for 30 seconds. The plate was sealed and incubated in a Constant Temperature incubator Incubator at 25° C. for 60 min. The assay plate was placed on an Envision reader for reading.
(§4) Data were fitted in XLFit excel add-in version 5.4.0.8 to obtain IC50 values.

TRKC(G696A) = biological target: T8, TRKC(G696A) (Homo sapiens, UniProt Q16288, G696A); experiment: HTRF kinase inhibition assay, TRKC(G696A); type: biochemical
T8 construct: purchased Bioduro
Method: as §2, §3, §4

TRKC(G623R) = biological target: T9, TRKC(G623R) (Homo sapiens, UniProt Q16288, G623R); experiment: HTRF kinase inhibition assay, TRKC(G623R); type: biochemical
T9 construct: purchased Bioduro
Method: as §2
as §3, with “reading. (HTRF 665/615 ratio: signal value at 665 nm/signal value at 615 nm) Inhibition=(rationegative control well−ratiocompound well)/(rationegative control well−ratioenzyme-free control well)×100% 1.3 Data Analysis and Curve Fitting” for “reading.”
as §4

TRKA = biological target: T10, TRKA (Homo sapiens, UniProt P04629); experiment: HTRF kinase inhibition assay, TRKA; type: biochemical
T10 construct: purchased Bioduro
Method: as §2
as §3, with “reading. (HTRF 665/615 ratio: signal value at 665 nm/signal value at 615 nm) Inhibition=(rationegative control well−ratiocompound well)/(rationegative control well−ratioenzyme-free control well)×100% 1.3 Data Analysis and Curve Fitting” for “reading.”
as §4

TRKC = biological target: T11, TRKC (Homo sapiens, UniProt Q16288); experiment: HTRF kinase inhibition assay, TRKC; type: biochemical
T11 construct: purchased Bioduro
Method: as §2
as §3, with “reading. (HTRF 665/615 ratio: signal value at 665 nm/signal value at 615 nm) Inhibition=(rationegative control well−ratiocompound well)/(rationegative control well−ratioenzyme-free control well)×100% 1.3 Data Analysis and Curve Fitting” for “reading.”
as §4

ALK = biological target: T12, ALK (Homo sapiens, UniProt Q9UM73); experiment: Kinase inhibition assay with fluorescein labeled peptide, ALK; type: biochemical
T12 construct: purchased Carna 08-105
Method: (§5) Compounds were diluted to a certain concentration in DMSO with 4-fold gradients. The compound with a certain concentration, an enzyme solution and DMSO were added into a 384-well plate, and the plate was incubated at room temperature for 10 min. […] The plate was subjected to reading.

TRKA(G595R) = biological target: T13, TRKA(G595R) (Homo sapiens, UniProt P04629, G595R); experiment: HTRF kinase inhibition assay, TRKA(G595R); type: biochemical
T13 construct: purchased signalchem
Method: as §2
as §3, with “reading. (HTRF 665/615 ratio: signal value at 665 nm/signal value at 615 nm) Inhibition=(rationegative control well−ratiocompound well)/(rationegative control well−ratioenzyme-free control well)×100% 1.3 Data Analysis and Curve Fitting” for “reading.”
as §4

ROS1 = biological target: T14, ROS1 (Homo sapiens, UniProt P08922); experiment: Kinase inhibition assay with fluorescein labeled peptide, ROS1; type: biochemical
T14 construct: purchased Carna 08-163
Method: as §5

TRKA(G667C) = biological target: T15, TRKA(G667C) (Homo sapiens, UniProt P04629, G667C); experiment: HTRF kinase inhibition assay, TRKA(G667C); type: biochemical
T15 construct: purchased signalchem
Method: as §2
as §3, with “reading. (HTRF 665/615 ratio: signal value at 665 nm/signal value at 615 nm) Inhibition=(rationegative control well−ratiocompound well)/(rationegative control well−ratioenzyme-free control well)×100% 1.3 Data Analysis and Curve Fitting” for “reading.”
as §4

Compound	GI50 (Ba/F3 LMNA-NTRK1-G595R)	GI50 (Ba/F3 LMNA-NTRK1-G667C)	GI50 (Ba/F3 ETV6-NTRK2)	GI50 (Ba/F3 ETV6-NTRK3-G623R)	GI50 (Ba/F3 LMNA-NTRK1)	GI50 (Ba/F3 ETV6-NTRK3-G696A)	IC50 (TRKB)	IC50 (TRKC(G696A))	IC50 (TRKC(G623R))	IC50 (TRKA)	IC50 (TRKC)	IC50 (ALK)	IC50 (TRKA(G595R))	IC50 (ROS1)	IC50 (TRKA(G667C))
O=C(Nc1ccc(NC2COC2)cc1)c1cnn2ccc(N3C[C@@H](F)C[C@@H]3c3cc(F)ccc3F)nc12 [Compound 19, 5-((2R,4S)-2-(2,5-difluorophenyl)-4-fluoropyrrolidin-1-yl)-N-(4-(oxetan-3-ylamino)phenyl)pyrazolo[1,5-a]pyrimidine-3-carboxamide]	0.208 nM	1.19 nM	0.866 nM	0.426 nM	0.416 nM	0.321 nM	0.984 nM	0.936 nM	0.241 nM	0.265 nM	0.724 nM	39 nM	< 0.169 nM	0.23 nM	0.308 nM
CC(C)(O)C(=O)N1CCC(c2ccc(NC(=O)c3cnn4ccc(N5C[C@@H](F)C[C@@H]5c5cc(F)ccc5F)nc34)cc2)CC1 [Compound 13]	–	1.47 nM	–	–	–	–	–	–	–	–	–	–	–	–	–
O=C(Nc1ccc(CN2CCN(C(=O)CO)CC2)cc1)c1cnn2ccc(N3C[C@@H](F)C[C@@H]3c3cc(F)ccc3F)nc12 [Compound 18, 5-((2R,4S)-2-(2,5-difluorophenyl)-4-fluoropyrrolidin-1-yl)-N-(4-(4-(2-(2-hydroxyacetyl)piperazin-1-yl)methyl)phenyl)pyrazolo[1,5-a]pyrimidine-3-carboxamide]	–	3.43 nM	–	–	–	–	–	–	–	–	–	–	–	–	–

Second part, the compound after the results:

GI50 (Ba/F3 LMNA-NTRK1-G595R)	GI50 (Ba/F3 LMNA-NTRK1-G667C)	GI50 (Ba/F3 ETV6-NTRK2)	GI50 (Ba/F3 ETV6-NTRK3-G623R)	GI50 (Ba/F3 LMNA-NTRK1)	GI50 (Ba/F3 ETV6-NTRK3-G696A)	IC50 (TRKB)	IC50 (TRKC(G696A))	IC50 (TRKC(G623R))	IC50 (TRKA)	IC50 (TRKC)	IC50 (ALK)	IC50 (TRKA(G595R))	IC50 (ROS1)	IC50 (TRKA(G667C))	Compound
4.59 nM	413 nM	12.2 nM	13.3 nM	2.14 nM	90.8 nM	–	–	–	–	–	–	–	–	–	O=C(Nc1ccccc1)c1cnn2ccc(N3C[C@@H](F)C[C@@H]3c3cccc(F)c3)nc12 [Compound D5]
65.9 nM	≥ 1000 nM	14.9 nM	17 nM	9.52 nM	141 nM	–	–	–	–	–	–	–	–	–	O=C(NC1CCN(C(=O)CO)CC1)c1cnn2ccc(N3C[C@@H](F)C[C@@H]3c3cccc(F)c3)nc12 [Compound D4]
289 nM	307 nM	6.09 nM	24.8 nM	1.6 nM	258 nM	–	–	–	–	–	–	–	–	–	CCN1CCN(c2ccc(C(=O)Nc3cnn4ccc(N5CCC[C@@H]5c5cc(F)ccc5F)nc34)cc2)CC1 [Compound D1]
522 nM	316 nM	17.4 nM	207 nM	8.68 nM	542 nM	–	–	–	–	–	–	–	–	–	CN1CCN(Cc2ccc(C(=O)Nc3cnn4ccc(N5CCC[C@@H]5c5cc(F)ccc5F)nc34)cc2)CC1 [Compound D3]
